Values of other authors in US8697633B2, “Dissolution of arterial plaque” (AtheraNova Operations, Inc., priority 2005, dated 2014).

Tests used:
atherosclerotic plaque [1] = conditions: dietary HDCA, relative to mice not provided HDCA
atherosclerotic plaque [2] = conditions: 40 mg/day

In the case of `C[C@H](CCC(=O)O)[C@H]1CC[C@H]2[C@@H]3C[C@H](O)[C@@H]4C[C@H](O)CC[C@]4(C)[C@H]3CC[C@]12C` [HDCA, hyodeoxycholic acid], the “rate of formation of atherosclerotic plaque” value (atherosclerotic plaque [1]) is given as “reduced rate of formation of atherosclerotic plaque”.
In the case of `CC(C)c1nc(N(C)S(C)(=O)=O)nc(-c2ccc(F)cc2)c1/C=C/[C@@H](O)C[C@@H](O)CC(=O)O` [rosuvastatin], the “modulation of LDL, HDL, and triglyceride levels” value (atherosclerotic plaque [2]) is listed as “particularly effective”, the “reduction of normalized total atheroma volume” value (atherosclerotic plaque [2]; after 2 years, SD=11.1) is listed as 6.7% and the “reduction of plaque volume in the most diseased segments of vessels” value (atherosclerotic plaque [2]; after 2 years, SD=13.7) is listed as 8.5%.
